Experimental data published in PubChem BioAssay AID365 (MTDP, 2006).
pIC50: −log10 of the molar value. Calls of active or inactive are those of the source. The rule behind the calls is not given here.

Molecular target: Ribonuclease HI (Escherichia coli (strain K12)) (UniProt P0A7Y4)
Assay: E. coli RNase HI inhibitors, dose response, biochemical, FRET RNA/DNA duplex cleavage (AID 365)
Details: E. coli RNase H, FRET RNA/DNA cleavage fluorescence

Chain of Ribonuclease HI (Escherichia coli (strain K12)) (P0A7Y4 whole entry, looked up): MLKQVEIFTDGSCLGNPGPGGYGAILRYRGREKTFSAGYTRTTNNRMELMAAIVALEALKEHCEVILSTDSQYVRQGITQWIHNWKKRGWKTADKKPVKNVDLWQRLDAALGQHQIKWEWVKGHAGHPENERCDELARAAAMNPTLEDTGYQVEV

SMILES	pIC50	IC50
O=c1[nH]c(=S)n(-c2ccccc2F)c(O)c1C=C1C=CC=N1	6.10	
Cc1ccc(C)n1-c1ccc(SCC(=O)O)cc1		> 100 µM (inactive)
O=C1c2cc([N+](=O)[O-])ccc2-c2ccc3c4ccc5c6c(ccc(c7ccc1c2c73)c64)C(=O)c1cc([N+](=O)[O-])ccc1-5	5.74	
O=C(NC(=S)Nc1cc(-c2nc3ccccc3s2)ccc1Cl)c1ccc(F)cc1	5.22	
COc1ccc2oc(=O)c(-c3csc(Nc4ccc(Br)cc4)n3)cc2c1	5.55	
Cc1ccc(C)n1-c1ccc(Br)cc1C(=O)O		inactive
CC(C)=CCC(O)C1=CC(=O)c2c(O)ccc(O)c2C1=O (stereo not drawn)		inactive
O=[N+]([O-])c1ccc(S(=O)(=O)Cc2ccccc2)c2nonc12		inactive
O=C1C(Cl)=CC(=NS(=O)(=O)c2ccccc2)C=C1Cl		inactive
CC(C)c1ccc(O)c(O)c(=O)c1 (tested in a mixture with another compound)		inactive
CC1=C(C)CC(C(=O)Nc2ccc(N3C(=O)c4ccccc4C3=O)cc2)C(C(=O)O)C1 (stereo not drawn)		> 100 µM (inactive)
Oc1ccc2ccccc2c1C=NCc1c(O)ccc2ccccc12		inactive
COc1ccc(/C=C\C(=O)c2c(-c3ccccc3)c3cc(C)ccc3[nH]c2=O)c(OC)c1	5.05	
O=C1C=C(NCCc2cc(Br)c(O)c(Br)c2)C(=O)c2ncccc21		inactive
Cc1ccc(C)n1-c1ccc(O)c(C(=O)O)c1		> 100 µM (inactive)
N#Cc1c(N)nc(SCC(=O)c2ccc(O)c(O)c2)c(C#N)c1-c1ccc(O)cc1	5.77	
O=C1NN(c2ccc(I)cc2)C(=O)/C1=C\c1ccc(O)c(O)c1	5.46	
C=CC1=C(C)C2=NC1=CC1=NC(=CC3=C(C)C4=C(O)C(C(=O)OC)C(=C5NC(=C2)C(C)C5CCC(=O)OC/C=C(\C)CCCC(C)CCCC(C)CCCC(C)C)C4=N3)C(CC)=C1C (stereo not drawn)		> 100 µM (inactive)
O=[N+]([O-])c1cc(Cc2cc([N+](=O)[O-])c3cccnc3c2O)c(O)c2ncccc12		inactive
O=C1/C(=C/c2ccc(O)c(O)c2)SC(=S)N1C1CCCCC1	5.52	
O=S(=O)(Nc1cccc(C(F)(F)F)c1)c1ccc2ccccc2c1		inactive
C=C(C)[C@@H]1CCc2c(O)c(O)c(=O)cc(C)c2C1		inactive
O=[N+]([O-])c1c(Cl)cccc1-c1c[nH]cc1Cl		> 100 µM (inactive)
Cc1ccc(C=C2C(=O)NC(=S)N(c3ccccc3Cl)C2=O)o1		inactive
COc1cccc(-c2nc3cc(NC(=O)/C=C\c4ccccc4)ccc3o2)c1	5.43	

SMILES	pIC50	IC50
O=c1c(O)c(-c2ccc(O)c(O)c2)oc2cc(O)cc(O)c12		inactive
N#C/C(=C\Nc1ccc(S(=O)(=O)Nc2nccs2)cc1)c1nc(-c2ccc(Cl)cc2)cs1	5.92	
O=C1c2ccccc2C(=O)c2c(NC3CCCCC3)ccc(Nc3ccc(S(=O)(=O)O)cc3)c21		inactive
Cc1cc(O)c2c(c1O)C(=O)c1cccc(O)c1C2=O		> 100 µM (inactive)
CCCc1cc(=O)oc2c3c(c4c(c12)OC(C)(C)C=C4)O[C@H](C)[C@@H](C)[C@H]3OC		inactive
O=C1C=C/C(=N\S(=O)(=O)c2cc(Cl)ccc2Cl)C=C1Cl	5.15	
Cc1cc(-c2ccc(C=C3C(=O)NC(=S)NC3=O)o2)c([N+](=O)[O-])cc1C	5.06	
Ic1ccc2c(c1)N(c1ccccc1)c1cc(N=c3ccc4nc5ccc(I)cc5n(-c5ccccc5)c-4c3)ccc1N2	5.39	
C=Cc1c(C)c2cc3[nH]c(cc4nc(cc5nc(cc1[nH]2)C(C)=C5CCC(=O)O)C(CCC(=O)O)=C4C)c(C)c3C=C		inactive
O=c1c(O)c(-c2cc(O)c(O)c(O)c2)oc2cc(O)cc(O)c12		inactive
Cc1sc(NC(=O)Cc2ccccc2)c(C(N)=O)c1C		inactive
O=C1NC(=S)S/C1=C/c1cccc(OCc2ccc(Cl)c(Cl)c2)c1	5.36	
Oc1cc(O)c2c(c1)OC(c1ccc(O)c(O)c1)C(OC1(c3cc(O)c(O)c(O)c3)Oc3cc(O)cc(O)c3C(O)C1O)C2 (stereo not drawn)		> 100 µM (inactive)
O=C1C=CC(=O)c2c(O)cccc21	5.31	
Nc1nc(Sc2ccc([N+](=O)[O-])c3nonc23)c2[nH]cnc2n1		> 100 µM (inactive)
COc1cc(/C=N\c2sc3c(c2C(=O)NCc2ccccc2)CCCC3)cc(Cl)c1O	6.02	
Cc1ccc(S(=O)(=O)/N=C2\C=C(Sc3ncn[nH]3)C(=O)c3ccccc32)cc1		inactive
O=C1C=CC(=O)C(c2cccc(Cl)c2)=C1	5.06	
CN(C)S(=O)(=O)c1ccc(Nc2ccc(O)c3c2C(=O)c2c([N+](=O)[O-])ccc(O)c2C3=O)cc1	5.10	
Cc1ccc(-c2cc(C(=O)Nc3sc(C(=O)OC(C)C)c(C)c3C(N)=O)c3ccccc3n2)s1	5.74	
Cc1cc(O)c2c(c1O)C(=O)C13C(=C2O)C(=O)C2C(O)C1C1C(O)C3C(=O)C3=C(O)c4c(O)cc(C)c(O)c4C(=O)C321 (stereo not drawn)		inactive
O=c1[nH]c2[nH]c(=S)[nH]c(=S)c2[nH]1		> 100 µM (inactive)
COC(=O)c1cc2c3c(ccc2[nH]1)N(C(=O)c1cc2c4c(ccc2[nH]1)N(C(=O)c1cc2c5c(ccc2[nH]1)N(C(N)=O)CC5)CC4)CC3		inactive
O=C1NC(=O)/C(=C/c2ccc(-c3ccc(O)c(C(=O)O)c3)o2)S1	5.89	
CCOc1ccc(N2C(=O)/C(=C/c3ccc(Br)o3)C(=O)NC2=S)cc1	6.10	

SMILES	pIC50	IC50
O=C(N/N=C/c1ccc(/C=N/NC(=O)c2ccc(O)c(O)c2)cc1)c1ccc(O)c(O)c1	5.68	
COc1cc(-c2[o+]c3cc(O)cc(O)c3cc2O)cc(O)c1O		inactive
Cc1c(Cl)ccc2c1NC(C(=O)O)C1CC=CC21 (stereo not drawn)	5.17	
C=CCN1C(=O)/C(=C\c2ccc([N+](=O)[O-])o2)C(=O)NC1=S	4.14	
Cc1sc2nc(-c3ccc([N+](=O)[O-])cc3)[nH]c(=O)c2c1C	5.80	
Oc1cc(O)c2cc(O)c(-c3ccc(O)c(O)c3)[o+]c2c1	6.40	
O=C1C=CC(=NS(=O)(=O)c2ccc(Cl)c([N+](=O)[O-])c2)C=C1	5.15	
O=C1Nc2ccc(I)cc2C1(O)N1CCOCC1 (stereo not drawn)	6.10	
Cc1ccc(-c2n[nH]c(=S)n2/N=C/c2ccc(O)c(O)c2O)cc1		inactive
CC(C)=CCC1=C(O)[C@@](O)(CC=C(C)C)C(=O)C(C(=O)CC(C)C)=C1O		inactive
CC(=O)C1=C(O)[C@@]2(O)C(=O)c3c(c(C)c4ccc(C)c(O)c4c3O)C[C@H]2[C@@H](N)C1=O	5.05	
N#Cc1c(NC(=O)C(F)(F)F)sc2c3c(=O)c4ccccc4c(=O)c=3oc3ccccc3c12		inactive
O=C(Oc1ccccc1)Oc1c(Cl)cc2oc(=O)sc2c1Cl	5.11	
O=C1C=CC2=C3c4cc(O)c(O)cc4CC3(O)COC2=C1O (stereo not drawn)		inactive
O=C1c2ccccc2C(=O)c2c(O)c(O)cc(O)c21		inactive
CC(C)=CCC[C@]1(C)[C@@H](CC=C(C)C)C[C@@]2(CC=C(C)C)C(=O)/C(=C(\O)c3ccc(O)c(O)c3)C(=O)[C@]1(CC=C(C)C)C2=O	5.68	
O=C1NC(=S)N(c2ccccc2F)C(=O)/C1=C/c1ccc(I)o1	5.14	
O=[N+]([O-])c1ccc2c(N=Nc3ccc4ccccc4c3O)c(O)cc(S(=O)(=O)O)c2c1	5.52	
CC(C)OC(=O)c1cc(O)c(O)c(O)c1		> 100 µM (inactive)
Nc1cc(S(N)(=O)=O)ccc1SSc1ccc(S(N)(=O)=O)cc1N		> 100 µM (inactive)
CCN1C(=O)/C(=C/c2ccoc2)C(=O)NC1=S		inactive
Cc1ccc(S(=O)(=O)N=C2C=CC(=O)C=C2)c(C)c1	5.11	
C=CCn1c(N)c(-c2nc3ccccc3[nH]2)sc1=S		inactive
Cc1sc(NC(=O)c2ccco2)c(C(N)=O)c1C		inactive
NCC[Se][Se]CCN		> 100 µM (inactive)

SMILES	pIC50	IC50
COc1ccc(-c2c(C#N)c(N)nc(SCC(=O)c3ccc(O)c(O)c3)c2C#N)cc1	6.22	
CCOc1ccc(NC(=O)c2c(NC(=O)c3ccccc3)sc3c2CCCCC3)cc1	6.48	
Cc1cc(C)c2c(=O)[nH]c(SCC(=O)c3ccc(O)c(O)c3)nc2n1	4.74	
Cc1cc(=O)c2c(O)c3c(O)cc(O)c4c5c(O)cc(O)c6c(O)c7c(=O)cc(C)c8c1c2c(c34)c(c65)c78		inactive
CCOc1ccc(NC(=O)c2c(NC(=O)c3ccco3)sc3c2CCCCC3)cc1		inactive
O=C(N/N=C/c1ccccc1Cl)c1cc(O)c(O)c(O)c1		inactive
CN1CC(O)C2=CC(=O)C(=O)C=C21 (stereo not drawn)		> 100 µM (inactive)
CCCCCCCCCCCCCCCC(=O)OCC1OC(n2ccc(N)nc2=O)C(O)C1O (stereo not drawn)	6.19	
Cc1ccc(-c2c(C#N)c(SCC(=O)c3ccc(O)c(O)c3)nc3c2CCCC3)o1	6.70	
O=C1NC(=S)N(c2ccc(Cl)cc2)C(=O)/C1=C/c1ccco1		inactive
O=C(O)c1cc(-c2ccc(/C=C3/Sc4ccccc4C3=O)o2)ccc1O	6.00	
O=C1C(Cl)=C/C(=N\S(=O)(=O)c2ccc(Cl)cc2)C(Cl)=C1Cl		inactive
O=C1/C(=C/c2ccco2)C(=O)N(c2ccc(Br)cc2)C(=S)N1c1ccccc1		inactive
O=C1C(Cl)=C(Nc2ccc(S(=O)(=O)Nc3ccccn3)cc2)C(=O)c2ccccc21	4.10	
C[N+](C)=c1ccc2nc3c(cc(Nc4ccccc4)c4ccccc43)oc-2c1	5.55	
Cc1cc(C(=O)O)ccc1-n1c(C)ccc1C		> 100 µM (inactive)
Cc1cccc(NC(=O)c2c(NC(=O)c3ccc([N+](=O)[O-])cc3)sc3c2CCCC3)c1	6.55	
Cc1ccc(NC(=O)c2c(NC(=O)C(F)(F)F)sc(-c3ccccc3)c2C)c(C)c1	5.09	
C[C@H]1[C@H](O)c2c(c3c(c4c(-c5ccccc5)cc(=O)oc24)OC(C)(C)C=C3)O[C@@H]1C		> 100 µM (inactive)
NC(=O)c1c(NC(=O)CCc2ccccc2)sc2c1CCCCCC2	5.70	
O=c1c(O)cccc2cc(O)c(O)c(O)c12		inactive
C[C@]12Cc3cnc(-c4ccccc4)nc3C[C@@H]1CC[C@@H]1[C@@H]2CC[C@@]2(C)[C@H]1CC[C@]2(C)O		inactive
O=C1NC(=S)N(c2ccccc2F)C(=O)C1=Cc1ccco1	5.96	
